In one data set the test system is serotonine. Briefly: serotonine antagonistic effect on gastric fundus strip of rats. Conditions: 10 μg/ml. antagonistic dose.
The test system of the next data set is acetylcholine. Put plainly: antagonistic activity against acetylcholine on ileum of guinea pigs.
Data set [1] in a line: acute toxicity (LD50) on mice. Conditions: mouse, in vivo, po.
Data set [2] is described as follows: diuretic activity on rats, quantity of urine passed in 4 hours. It is filed as in vivo. Conditions: 2 mg/kg. dose, compared with 2 mg/kg. p.o. Hypothiazid. On the procedure:
The diuretic activity of the compounds of the formula (I) was tested on rats. The quantity of the urine passed in 4 hours and of the discharged Na^+ and K^+ ions were determined by known methods (Arzneimitt. Forsch. 27, 559; 1978). The antiinflammatory activity was tested in paw oedema on rats. The oedema was induced by carrageenien and the inhibition was expressed in %.

In the next data set the target is T1, cyclic oxygenase (Ovis aries, UniProt P05979).
T1 construct: As an enzyme source a homogenizate of sheep spermatocele; from tissue; host or cells: homogenate of sheep 'spermatocele' (read as seminal vesicle)
T1 sequence (P05979 25-600): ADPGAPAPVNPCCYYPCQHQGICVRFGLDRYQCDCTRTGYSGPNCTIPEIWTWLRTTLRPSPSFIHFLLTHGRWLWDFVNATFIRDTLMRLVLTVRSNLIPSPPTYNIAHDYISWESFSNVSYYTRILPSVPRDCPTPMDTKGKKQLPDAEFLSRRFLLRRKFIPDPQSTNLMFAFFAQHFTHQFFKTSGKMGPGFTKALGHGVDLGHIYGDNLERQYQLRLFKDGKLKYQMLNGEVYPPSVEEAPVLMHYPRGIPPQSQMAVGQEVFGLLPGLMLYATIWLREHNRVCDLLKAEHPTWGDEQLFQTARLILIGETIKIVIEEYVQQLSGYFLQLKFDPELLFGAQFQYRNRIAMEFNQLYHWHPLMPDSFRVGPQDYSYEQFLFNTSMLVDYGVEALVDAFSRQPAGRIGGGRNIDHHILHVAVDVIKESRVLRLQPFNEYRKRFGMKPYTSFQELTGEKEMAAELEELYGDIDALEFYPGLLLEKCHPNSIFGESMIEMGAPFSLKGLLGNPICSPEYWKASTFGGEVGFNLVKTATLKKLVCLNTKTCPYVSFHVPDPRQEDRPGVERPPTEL
Put plainly: effect on biosynthesis of prostaglandins: activity of cyclic oxygenase, oxygen consumption with arachidonic acid substrate (Clark electrode). It is filed as biochemical, sheep. As to conditions: for AC50: concentration for 50% increase in oxygen consumption; for EC (100% increase): concentration for 100% increase in oxygen consumption, read-out: AC100%. The procedure:
The effect of the compounds of the formula (I) on the biosynthesis of prostaglandins was determined by a known technique (J. Biol. Chem., 246, 6700; 1971). As an enzyme source a homogenizate of sheep spermatocele and as a substrate arachidonic acid were used. The transformation of the substrate, which involves oxygen consumption, was monitored on the basis of the change of the concentration of dissolved oxygen, which was measured by a Clark electrode. During the measurements the concentration of the active compounds, which involved a 50% and 100%, respectively, […] in the oxygen consumption were determined. The concentrations were expressed in μM/lit. The results obtained are contained in the Table below. |The effect of the compounds of the formula |(I) on the activity of cyclic oxygenase |Substrate: arachidonic acid

In data set [3] the test system is isolated trachea of guinea pigs. Put plainly: relaxant activity on isolated trachea of guinea pigs. Conditions: for relaxant effect relative to theophylline: 1 μg/ml. dose; for relaxant activity relative to theophylline: related to a 95 to 100% relaxation. The procedure:
According to a test carried out on isolated trachea of guinea pigs (J. Pharm. Pharmac. 31, 798; 1979) the compounds prepared according to the invention have a relaxant activity. […] The activity of the compounds obtained in Example 4 is significant also at a dose of 0.1 μg/ml.

For a further data set, the system named is histamine. Briefly: antagonistic activity against histamine on ileum of guinea pigs. As to conditions: for effect against histamine relative to theophylline: 50 μg/ml. antagonistic dose.
The next data set concerns paw oedema. Put plainly: antiinflammatory activity, carrageenien-induced paw oedema on rats. The data set is classed as in vivo. On the procedure: The diuretic activity of the compounds of the formula (I) was tested on rats. The quantity of the urine passed in 4 hours and of the discharged Na^+ and K^+ ions were determined by known methods (Arzneimitt. Forsch. 27, 559; 1978). The antiinflammatory activity was tested in paw oedema on rats. The oedema was induced by […] inhibition was expressed in %.

SMILES strings stand for the structures. Where a name gives a salt, the structure may show the parent alone. Read-outs that look alike come from different tables or passages of the source.

`Cn1c(=O)c2[nH]cnc2n(C)c1=O` [theophylline, reference compound]: in the data set with serotonine, the “inhibition (serotonine antagonistic effect)” value is reported as 8%. The inhibition against acetylcholine with acetylcholine (50 μg/ml. antagonistic dose) is on record as 16%. Besides, the “maximum inhibition (acetylcholine)” value in the data set on acetylcholine (at a dose of 200 μg/ml.) is recorded as 30%.
`COc1cc2c(cc1OC)C(C(C#N)SCCC(=O)O)=NCC2` (centres unmarked) [Example 9]: the LD50 in data set [1] (p.o. on mice, read-out: LD50) was over 500 mg/kg. The “increase of the quantity of the urine secreted” value in data set [2] is “to the same extent as a 2 mg/kg. p.o. dose of Hypothiazid”. The molecule further showed an AC50 at cyclic oxygenase of 95 µM. Moreover, in the data set with acetylcholine (50 μg/ml. antagonistic dose), the “activity against acetylcholine relative to theophylline” value is “the same activity”. Also, the “maximum inhibition (acetylcholine)” value in the data set on acetylcholine (in a dose of 100 μg/ml.) amounted to 55%. Further, in data set [3], the “relaxant effect relative to theophylline” value is on record as “only half of its effect” and the “relaxant activity relative to theophylline” value is recorded as “the same activity as theophylline”. The “effect against histamine relative to theophylline” value in the data set on histamine was “the same effect as theophylline”. For the same molecule, the “maximum inhibition (histamine)” value in the data set on histamine (100 μg/ml.) came to 26%.
Consider `COc1cc2c(cc1OC)C(C(C#N)SCC(=O)NN)=NCC2` (stereo not drawn) [Example 22, α-(carbohydrazidomethyl)-mercapto-6,7-dimethoxy-3,4-dihydro-1-isoquinolyl-acetonitrile], for which, at cyclic oxygenase, the AC50 was 720 µM and the EC (100% increase) worked out at 1800 µM.
`COc1cc2c(cc1OC)C(C(C#N)SCC(=O)O)=NCC2` (stereo not drawn) [Example 6, α-carboxymethylmercapto-6,7-dimethoxy-3,4-l-dihydro-1-isoquinolyl-acetonitrile]: the LD50 in data set [1] (p.o. on mice, read-out: LD50) was over 500 mg/kg. Moreover, the “increase of the quantity of the urine secreted” value in data set [2] is “to the same extent as a 2 mg/kg. p.o. dose of Hypothiazid”. Also, at cyclic oxygenase, the activity was half-maximal at 60 µM (AC50) and the EC (100% increase) is 225 µM. The “inhibition (serotonine antagonistic effect)” value with serotonine came to 16%.
Regarding `COc1cc2c(cc1OC)C(C(C#N)SCCO)=NCC2` (stereo not drawn) [Example 3, α-(2-hydroxy-ethylmercapto)-6,7-dimethoxy-3,4-dihydro-1-isoquinolyl-acetonitrile], in data set [1] (per os on mice, read-out: DL), the LD50 is over 500 mg/kg. Further, at cyclic oxygenase, the concentration at half-maximal activity (AC50) amounted to 100 µM and the EC (100% increase) is 200 µM. Also, the “inhibition in paw oedema test” value in the data set with paw oedema (100 mg/kg dose, rats (route not given)) was 20%.
`N#CC(SCCC(=O)O)C1=NCCc2ccccc21` (stereo not drawn) [Example 8, α-(2-carboxyethyl)-mercapto-3,4-dihydro-1-isoquinolyl-acetonitrile]: on cyclic oxygenase, the concentration at half-maximal activity (AC50) is 48 µM and the EC (100% increase) was determined as 96 µM. Besides, the “inhibition (serotonine antagonistic effect)” value with serotonine was found to be 8%.
As for `CCOC(=O)CSC(C#N)C1=NCCc2cc(OC)c(OC)cc21` (stereo not drawn) [Example 18, α(ethoxycarbonyl)-methyl-mercapto-6,7-dimethoxy-3,4dihydro-1-isoquinolyl-acetonitrile], on cyclic oxygenase, the AC50 was 69 µM and the EC (100% increase) was found to be 138 µM.
For `N#CC(SCC(=O)O)C1=NCCc2ccccc21` (stereo not drawn) [Example 5, α-carboxy-methyl-mercapto-3,4-dihydro-isoquinolyl-acetonitrile], in that order: 40 µM and 80 µM.
On to `COc1cc2c(cc1OC)C(C(C#N)SCCCO)=NCC2` (stereo not drawn) [Example 4, α-(3-hydroxy-propylmercapto)-6,7-dimethoxy-3,4-dihydro-1-isoquinolyl-acetonitrile], for which the LD50 in data set [1] (p.o. on mice, read-out: LD50) is over 500 mg/kg. In addition, on cyclic oxygenase, the AC50 stood at 70 µM and the EC (100% increase) worked out at 140 µM. Moreover, in the data set with serotonine, the “inhibition (serotonine antagonistic effect)” value turned out to be 80%. Further, the “activity against acetylcholine relative to theophylline” value with acetylcholine (50 μg/ml. antagonistic dose) is recorded as “six-times more active”. In the data set on acetylcholine (in a dose of 50 μg/ml.), the “maximum inhibition (acetylcholine)” value is reported as 100%. Also, the “inhibition in paw oedema test” value in the data set on paw oedema (100 mg/kg. p.o. dose, rats) was 20%. Further, in data set [3], the “relaxant effect relative to theophylline” value is listed as “five-times more effective than theophylline” and the “relaxant activity relative to theophylline” value is reported as “five-times higher activity than theophylline”. The relaxant activity entry in data set [3] (dose of 0.1 μg/ml.) was “significant”. Moreover, the “maximum inhibition (histamine)” value in the data set with histamine (50 μg/ml.) is 100%. The “effect against histamine relative to theophylline” value with histamine was “six-times more potent”.
Consider `CCN(CC)CCSC(C#N)C1=NCCc2cc(OC)c(OC)cc21` (stereo not drawn) [Example 14, α-(2-diethylaminoethyl)-mercapto-6,7-dimethoxy-3,4-dihydro-1-isoquinolyl-acetonitrile hydrochloride], for which, on cyclic oxygenase, the AC50 was 280 µM and the EC (100% increase) is 395 µM.
`COc1cc2c(cc1OC)C(C(C#N)SC(C)C(=O)O)=NCC2` (stereo not drawn) [Example 12, α-(1-carboxy-1-ethyl)-mercapto-6,7-dimethoxy-3,4-dihydro-1-isoquinolyl-acetonitrile] had an AC50 at cyclic oxygenase of 105 µM.
With `COc1cc2c(cc1OC)C(C(C#N)SCCN(C)C)=NCC2` (stereo not drawn) [Example 15, α-(2-dimethylaminoethyl)-mercapto-6,7-dimethoxy-3,4-dihydro-1-isoquinolyl-acetonitrile hydrochloride], on cyclic oxygenase, the AC50 came out at 62 µM and the EC (100% increase) amounted to 124 µM.
